Data as given in patent US20130345058A1, “USE OF LIPOCHITO-OLIGOSACCHARIDE COMPOUNDS FOR SAFEGUARDING SEED SAFETY OF TREATED SEEDS” (priority 2011, published 2013).

Legend:
Assay type in all cases: in vivo
maize = experiment: Germination rate of maize in combination with insecticides (greenhouse); settings: clothianidin 1.25, imidacloprid 0.75 mg ai/corn, compound A1 1 mg/ha, greenhouse 10° C., 80% humidity, 9 days, solvent control 17
Procedure: (§1) The test was performed under greenhouse conditions. Kernels were treated with different insecticides (ready formulated) or a mixture of compound A1 (1 mg/ha in 1:1, acetonitril/water) with the insecticides. Kernels were planted in soil and grown in the greenhouse at 20° C., 80% humidity, 12 h day/light cycle for 4 days (wheat) and at 10° C., 80% humidity, 12 h day/light cycle for 9 days (maize). Controls are performed in the same conditions in the absence of active ingredients. Assessment consisted of counting seedlings per treatment.

Wheat kernels = experiment: Germination rate of wheat in combination with fungicides (greenhouse); settings: fungicides 25 g/dt in NMP, compound A1 0.1 mg/ha, soil, greenhouse 15° C., 70% humidity, 7 days, solvent control 69
Procedure: The test is performed under greenhouse conditions.
Wheat kernels were treated with different fungicides (25 g/dt in NMP) or a mixture of compound A1 (0.1 mg/ha in 1:1, acetonitril/water) with the fungicides. Kernels were planted in soil and grown in the greenhouse at 15° C., 70% humidity, 14 h day/light cycle for 7 days.
Controls are performed in the same conditions in the absence of active ingredients. Assessment consisted of counting seedlings per treatment.

wheat = experiment: Germination rate of wheat in combination with insecticides (greenhouse); settings: thiacloprid 1.00 mg ai/corn, compound A1 1 mg/ha, greenhouse 20° C., 80% humidity, 4 days, solvent control 64
Procedure: as §1

Compound | % germination (Wheat kernels) | other results
CN/C(=N\[N+](=O)[O-])NCc1cnc(Cl)s1 [clothianidin] | – | germination % maize 9 d (maize): 8%
N#Cc1c[nH]cc1-c1cccc2c1OC(F)(F)O2 [fludioxonil] | 23% | –
CO/N=C(/C1=NOCCO1)c1ccccc1Oc1ncnc(Oc2ccccc2Cl)c1F [fluoxastrobin] | 4% | –
N#C/N=C1\SCCN1Cc1ccc(Cl)nc1 [thiacloprid] | – | germination % wheat 4 d (wheat): 9%
CC(C)(C)C(O)(CCc1ccc(Cl)cc1)Cn1cncn1 (stereo not drawn) [tebuconazole] | 21% | –
Cc1nn(C)c(F)c1C(=O)Nc1ccccc1C(C)CC(C)C (stereo not drawn) [Penflufen] | 47% | –
